Measured values taken from ChEMBL document CHEMBL5113436, “WCK 4034: A promising oxazolidinone for treating gram positive infections” (Bioorg Med Chem Lett, 2022).
≈ marks a conversion by molar mass, not a printed value.

What was measured:
[1] = system: Staphylococcus aureus; experiment: Antibacterial activity against methicillin-sensitive Staphylococcus aureus Sta-001 incubated for 18 hrs by CLSI protocol based two-fold serial agar dilution method; type: functional
[2] = system: Staphylococcus aureus; experiment: Antibacterial activity against methicillin-resistant Staphylococcus aureus Sta-032 incubated for 18 hrs by CLSI protocol based two-fold serial agar dilution method; type: functional
[3] = system: Streptococcus pneumoniae; experiment: Antibacterial activity against Streptococcus pneumoniae ATCC 49619 incubated for 18 hrs by CLSI protocol based two-fold serial agar dilution method; type: functional
[4] = system: Haemophilus influenzae; experiment: Antibacterial activity against Haemophilus influenzae […] ATCC 35054 incubated for 18 hrs by CLSI protocol based two-fold serial agar dilution method; type: functional
[5] = system: Staphylococcus aureus; experiment: Antibacterial activity against Staphylococcus aureus Sta-5027 infected in Swiss mouse model of septicemia administered by oral route 1 h and 5 h post-infection; type: functional; details: Sta-5027, 168 h, time 7 day
[6] = system: Staphylococcus aureus; experiment: Antibacterial activity against Linezolid-resistant Staphylococcus aureus Sta-5059 incubated for 18 hrs by CLSI protocol based two-fold serial agar dilution method; type: functional
[7] = system: Staphylococcus aureus; experiment: Antibacterial activity against Linezolid-resistant Staphylococcus aureus Sta-5060 incubated for 18 hrs by CLSI protocol based two-fold serial agar dilution method; type: functional
[8] = Cmax in Wistar rat at 15 mg/kg, iv; type: ADME, organism-based; set-up: dose 15 mg/kg, route iv; details: in vivo
[9] = Cmax in Wistar rat at 30 mg/kg, iv; type: ADME, organism-based; set-up: dose 30 mg/kg, route iv; details: in vivo
[10] = Cmax in Beagle dog at 15 mg/kg, iv; type: ADME, organism-based, Canis lupus familiaris; set-up: dose 15 mg/kg, route iv; details: in vivo
[11] = AUC in Wistar rat at 15 mg/kg, iv; type: ADME, organism-based; set-up: dose 15 mg/kg, route iv; details: in vivo
[12] = AUC in Beagle dog at 15 mg/kg, iv; type: ADME, organism-based, Canis lupus familiaris; set-up: dose 15 mg/kg, route iv; details: in vivo
[13] = Terminal half life in Wistar rat at 30 mg/kg, iv; type: ADME, organism-based; details: in vivo
[14] = Terminal half life in Beagle dog at 15 mg/kg, iv; type: ADME, organism-based, Canis lupus familiaris; details: in vivo
[15] = Volume of distribution in Wistar rat at 15 mg/kg, iv; type: ADME, organism-based; details: in vivo
[16] = Volume of distribution in Wistar rat at 30 mg/kg, iv; type: ADME, organism-based; details: in vivo
[17] = Clearance in Wistar rat at 15 mg/kg, iv; type: ADME, organism-based; details: in vivo
[18] = Clearance in Wistar rat at 30 mg/kg, iv; type: ADME, organism-based; details: in vivo
[19] = Clearance in Beagle dog at 15 mg/kg, iv; type: ADME, organism-based, Canis lupus familiaris; details: in vivo
[20] = AUC in Beagle dog at 15 mg/kg, iv; details: in vivo

Row | Structure (SMILES) | MIC [1] | MIC [2] | MIC [3] | MIC [4] | ED50 [5] | also measured
1 | O=C1O[C@@H](Cn2ccnn2)CN1c1cc(F)c(N2CCC3(OCCO3)C(F)C2)c(F)c1 (some centres undefined) | 8 µg/mL (≈ 18.2 µM) | 4 µg/mL (≈ 9.1 µM) | 2 µg/mL (≈ 4.55 µM) | > 16 µg/mL |  | 
2 | CC(=O)NC[C@H]1CN(c2ccc(N3CCCC4(C3)OCCO4)c(F)c2)C(=O)O1 | 4 µg/mL (≈ 10.2 µM) | 4 µg/mL (≈ 10.2 µM) | 4 µg/mL (≈ 10.2 µM) | 16 µg/mL (≈ 40.7 µM) | 5 mg/kg | 
3 | O=C1O[C@@H](Cn2ccnn2)CN1c1ccc(N2CCC3(OCCO3)C(F)C2)c(F)c1 (some centres undefined) | 16 µg/mL (≈ 38 µM) | 3.12 µg/mL (≈ 7.4 µM) | 4 µg/mL (≈ 9.49 µM) | > 16 µg/mL |  | 
4 | CC(=O)NC[C@H]1CN(c2ccc(N3CCC4(CC3)COCO4)c(F)c2)C(=O)O1 | 4 µg/mL (≈ 10.2 µM) | 4 µg/mL (≈ 10.2 µM) | 2 µg/mL (≈ 5.08 µM) | > 16 µg/mL | 5 mg/kg | 
5 | CC(=O)NC[C@H]1CN(c2cc(F)c(N3CCC4(OCCO4)[C@H](F)C3)c(F)c2)C(=O)O1 | 8 µg/mL (≈ 18.6 µM) | 8 µg/mL (≈ 18.6 µM) | 2 µg/mL (≈ 4.66 µM) | 16 µg/mL (≈ 37.3 µM) | 2.5 mg/kg | MIC [6]: > 8 µg/mL; MIC [7]: > 8 µg/mL
6 | CC(=O)NC[C@H]1CN(c2ccc(N3CCC4(CC3)CO4)c(F)c2)C(=O)O1 | 4 µg/mL (≈ 11 µM) | 4 µg/mL (≈ 11 µM) | 4 µg/mL (≈ 11 µM) | 16 µg/mL (≈ 44 µM) |  | 
7 | CS(=O)(=O)OC[C@H]1CN(c2ccc(N3CCC4(OCCO4)C(F)C3)c(F)c2)C(=O)O1 (some centres undefined) | 12.5 µg/mL (≈ 27.9 µM) | 6.25 µg/mL (≈ 13.9 µM) | 4 µg/mL (≈ 8.92 µM) |  | > 10 mg/kg | 
8 | CC(=O)NC[C@H]1CN(c2ccc(N3CCC4(CC3)NCCO4)c(F)c2)C(=O)O1 | 2 µg/mL (≈ 5.1 µM) | 2 µg/mL (≈ 5.1 µM) | 2 µg/mL (≈ 5.1 µM) | 8 µg/mL (≈ 20.4 µM) | 20 mg/kg | 
9 | CC(=O)NC[C@H]1CN(c2cc(F)c(N3CCC4(OCCO4)C(F)C3)c(F)c2)C(=O)O1 (some centres undefined) | 2 µg/mL (≈ 4.66 µM) | 2 µg/mL (≈ 4.66 µM) | > 4 µg/mL | 16 µg/mL (≈ 37.3 µM) | < 5 mg/kg | MIC [6]: > 8 µg/mL; MIC [7]: > 8 µg/mL
10 | CC(=O)NC[C@H]1CN(c2ccc(N3CCC4(CC3)OCC(C)O4)c(F)c2)C(=O)O1 (some centres undefined) |  | 8 µg/mL (≈ 19.6 µM) |  |  | > 20 mg/kg | 
11 | CC(=O)NC[C@H]1CN(c2ccc(N3CCC4(CC3)OCCS4)c(F)c2)C(=O)O1 | 4 µg/mL (≈ 9.77 µM) | 4 µg/mL (≈ 9.77 µM) | 4 µg/mL (≈ 9.77 µM) | > 16 µg/mL | 10 mg/kg | 
12 | CC(=O)NC[C@H]1CN(c2ccc(N3CCC4(OCCO4)C(F)C3)c(F)c2)C(=O)O1 (some centres undefined) | 12.5 µg/mL (≈ 30.4 µM) | 4 µg/mL (≈ 9.72 µM) | 2 µg/mL (≈ 4.86 µM) |  | 5 mg/kg | 
13 | CC(=O)NC[C@H]1CN(c2ccc(N3CCC4(OCCO4)C(C)(C)C3)c(F)c2)C(=O)O1 |  | 12.5 µg/mL (≈ 29.7 µM) | 4 µg/mL (≈ 9.49 µM) | 2 µg/mL (≈ 4.75 µM) |  | 
14 | CC(=O)NC[C@H]1CN(c2ccc(N3CCC4(CCO4)CC3)c(F)c2)C(=O)O1 | 16 µg/mL (≈ 42.4 µM) | 6.25 µg/mL (≈ 16.6 µM) | 4 µg/mL (≈ 10.6 µM) | > 16 µg/mL | 20 mg/kg | 
15 | CC(=O)NC[C@H]1CN(c2ccc(N3CCC4(CC3)OCC(C)(C)CO4)c(F)c2)C(=O)O1 | 16 µg/mL (≈ 36.7 µM) | 16 µg/mL (≈ 36.7 µM) | 8 µg/mL (≈ 18.4 µM) | > 16 µg/mL |  | 
16 | CC(=O)NC[C@H]1CN(c2ccc(N3CCC4(CC3)OCCS4(=O)=O)c(F)c2)C(=O)O1 | > 32 µg/mL | > 32 µg/mL | 2 µg/mL (≈ 4.53 µM) | 16 µg/mL (≈ 36.2 µM) |  | 
17 | CC(=O)NC[C@H]1CN(c2ccc(N3CCC4(CC3)NCCS4)c(F)c2)C(=O)O1 | 4 µg/mL (≈ 9.79 µM) | 4 µg/mL (≈ 9.79 µM) | 2 µg/mL (≈ 4.9 µM) | 8 µg/mL (≈ 19.6 µM) | 5 mg/kg | 
18 | CC(=O)NC[C@H]1CN(c2ccc(N3CCC4(CC3)OCC(C)(C)O4)c(F)c2)C(=O)O1 |  | 8 µg/mL (≈ 19 µM) |  |  | > 20 mg/kg | 
19 | CC(=O)NC[C@H]1CN(c2ccc(N3CCC4(CC3)OCCCCO4)c(F)c2)C(=O)O1 | 16 µg/mL (≈ 38 µM) | 16 µg/mL (≈ 38 µM) | 4 µg/mL (≈ 9.49 µM) | > 16 µg/mL |  | 
20 | CC(=O)NC[C@H]1CN(c2ccc(N3CCOCC3)c(F)c2)C(=O)O1 [LINEZOLID] |  |  |  | 4 µg/mL (≈ 11.9 µM) | 2.5 mg/kg | MIC [6]: > 8 µg/mL; MIC [7]: > 8 µg/mL; Cmax [8]: 8700 ng/mL; Cmax [9]: 27300 ng/mL; Cmax [10]: 1620 ng/mL; AUC [11]: 1.24 µg·h/kg; AUC [12]: 19.9 µg·h/kg; beta t1/2 ([13]; iv, 30 mg/kg): 2.23 h; beta t1/2 [14]: 1.3 h; Vd [15]: 0.4 L/kg; Vd ([16]; iv, 30 mg/kg): 17.82 L/kg; CL [17]: 34 mL/min/kg; CL ([18]; iv, 30 mg/kg): 9.33 mL/min/kg; CL [19]: 3.17 mL/min/kg; AUC [20]: 78.2 µg·h/mL
21 | CC(=O)NC[C@H]1CN(c2ccc(N3CCC4(CC3)COCCCO4)c(F)c2)C(=O)O1 | 8 µg/mL (≈ 19 µM) | 4 µg/mL (≈ 9.49 µM) | 4 µg/mL (≈ 9.49 µM) | > 16 µg/mL | 10 mg/kg | 
22 | CC(=O)NC[C@H]1CN(c2ccc(N3CCC4(CC3)OCCO4)c(F)c2)C(=O)O1 | 4 µg/mL (≈ 10.2 µM) | 4 µg/mL (≈ 10.2 µM) | 4 µg/mL (≈ 10.2 µM) | 16 µg/mL (≈ 40.7 µM) | 5 mg/kg | 
23 | CC(=O)NC[C@H]1CN(c2ccc(N3CCC4(OCCO4)C(C)C3)c(F)c2)C(=O)O1 (some centres undefined) | 32 µg/mL (≈ 78.5 µM) | 32 µg/mL (≈ 78.5 µM) | 8 µg/mL (≈ 19.6 µM) | > 16 µg/mL |  | 
24 | CC(=O)NC[C@H]1CN(c2ccc(N3CCC4(CC3)OCC[S+]4[O-])c(F)c2)C(=O)O1 (some centres undefined) | 4 µg/mL (≈ 9.4 µM) | 4 µg/mL (≈ 9.4 µM) | 2 µg/mL (≈ 4.7 µM) | 8 µg/mL (≈ 18.8 µM) | 10 mg/kg | 
25 | CC(=O)NC[C@H]1CN(c2cc(F)c(N3CCC4(OCCO4)[C@@H](F)C3)c(F)c2)C(=O)O1 | 2 µg/mL (≈ 4.66 µM) | 2 µg/mL (≈ 4.66 µM) | 1 µg/mL (≈ 2.33 µM) | > 16 µg/mL | 2.5 mg/kg | MIC [6]: > 8 µg/mL; MIC [7]: > 8 µg/mL; Cmax [8]: 2370 ng/mL; Cmax [9]: 10800 ng/mL; Cmax [10]: 7100 ng/mL; AUC [11]: 7.32 µg·h/kg; AUC [12]: 6.9 µg·h/kg; half-life ([13]; Wistar, read-out: beta t1/2 (converted)): 7.1 h; beta t1/2 [14]: 4.01 h; Vd [15]: 0.4 L/kg; Vd ([16]; Wistar, read-out: Vd): 9.66 L/kg; CL [17]: 220.3 mL/min/kg; clearance ([18]; Wistar): 30.3 mL/min/kg; CL [19]: 1.7 mL/min/kg; AUC [20]: 135 µg·h/mL
26 | CS(=O)(=O)NC[C@H]1CN(c2ccc(N3CCC4(OCCO4)C(F)C3)c(F)c2)C(=O)O1 (some centres undefined) | > 32 µg/mL | 32 µg/mL (≈ 71.5 µM) | > 8 µg/mL | > 16 µg/mL | > 30 mg/kg | 
27 | CC(=O)NC[C@H]1CN(c2ccc(N3CCC4(OCCO4)C(F)C3)cc2)C(=O)O1 (some centres undefined) | 16 µg/mL (≈ 40.7 µM) | 8 µg/mL (≈ 20.3 µM) | 4 µg/mL (≈ 10.2 µM) | > 16 µg/mL | 5 mg/kg | 
28 | CC(=O)NC[C@H]1CN(c2ccc(N3CCC4(CC3)SCCS4)c(F)c2)C(=O)O1 | 8 µg/mL (≈ 18.8 µM) | 4 µg/mL (≈ 9.4 µM) | 2 µg/mL (≈ 4.7 µM) | > 16 µg/mL | > 20 mg/kg | 
29 | CC(=O)NC[C@H]1CN(c2ccc(N3CCC4(CC3)COCCO4)c(F)c2)C(=O)O1 | 4 µg/mL (≈ 9.82 µM) | 4 µg/mL (≈ 9.82 µM) | 2 µg/mL (≈ 4.91 µM) | > 16 µg/mL | > 10 mg/kg | 
